Assay results as given in patent US20240374681A1, “Formulation for Co-Administration of Q-GRFT and Tenofovir” (priority 2021, published 2024).

Columns and labels:
[1] = tested on: Caco-2 monolayer cell model; experiment: Caco-2 monolayer permeability of paracellular marker [^14C]-Mannitol
Description: Caco-2 Monolayer Cell Model Permeability Study Procedure: The procedure was adapted from a previously reported method to build a Caco-2 monolayer cell model and perform the permeability studies. Cell passages 34 to 42 were used to build the model in different batches. For preparation, a total of 3×10^5 Caco-2 cells were dispensed on the apical side of each Transwell filter. The model would be ready after 21-29 days of culture. The model was validated with a paracellular marker, [^14C]-Mannitol. […] To study the permeability, the sample solution was gently dispensed on the apical side of the model and cultured at 37° C. for 2 hours. […] The apparent permeability coefficients (Papp) were calculated using Equation 1, below.
[formula] [formula] • Papp (cm/sec): the apparent permeability coefficient;
(ng/sec): the rate of drug transportation; A (cm^2): the surface area of the cell layers; C0 (ng/ml): The initial drug concentration in the donor side.

[2] = tested on: Caco-2 monolayer cell model; conditions: reported literature value; cited from earlier work
[3] = tested on: Caco-2 monolayer cell model; conditions: 2-hour treatment, threshold 165 Ω*cm^2
Experimental: Caco-2 Monolayer Cell Model Toxicity Study Procedure: Passages 33 to 43 of the Caco-2 cell line were used in the studies. The Caco-2 cells were cultured in complete Dulbecco's modified Eagle's medium (DMEM) [500 ml of DMEM (Corning) containing 50 ml fetal bovine serum (FBS; Gibco Qualified One-Shot, Thermo Scientific) and 5 ml PEST (penicillin 10,000 U/ml-streptomycin, 10,000 ug/ml-glutamine 29.2 mg/ml solution (100×); Gibco, Fisher Scientific)] at 37° C. with 5% CO2 incubation. […] After overnight incubation, the samples were added to the wells and treated for 24 hours. […] A toxicity study utilizing the Caco-2 model was performed prior to permeability studies to examine the safety of the complete liquid formulations. Samples were applied on the apical side of the Transwell. After 2-hour treatments, the treated samples were discarded and washed off twice with HBSS. […] TEER values were also measured before and after the treatments as supplemental criteria for the toxicity study.

[4] = Q-GRFT content determination by HPLC (incl. stability study); assay type: physicochemical; conditions: molar ratios 3, 6, 12 to Q-GRFT monomer, 40° C./75% RH for 3 months
Experimental: Stability Study Procedure: Individual enema bottles containing 125 ml of solution were stored under three conditions (4° C.; 25° C./60% RH; 40° C./75% RH) and monitored over time (24 months for 4° C. and 25° C./60% RH; 6 months for 40°° C./75% RH). At each time point (1, 2, 3, 6, 9, 12, 18, and 24 months), physicochemical characteristics were evaluated and compared against the critical quality assessments (CQAs) according to the following procedures.
Q-GRFT Content Determination by High-Performance Liquid Chromatography: The High-Performance Liquid Chromatography (HPLC) method for measuring Q-GRFT content was previously developed and reported elsewhere. The samples were diluted 2 times with Milli-Q water. The Q-GRFT content was detected by an HPLC system (Waters Corporation, Milford, MA) equipped with an auto-injector (model 717), a quaternary pump (model 600), and a photodiode array detector (model 2996)) with a C5 column (Jupiter 5 μm 300 Å, 250×4.6 mm) and a C5 pre-column (Security Guard Standard Widepore).
Lyophilization: For samples with cryoprotectants, sugar/sugar polyol powders were weighed and added in individual scintillation vials. The Q-GRFT stock solution was then added. The sample vials were mixed until the powder dissolved. Next, the vials containing sample solution (with or without the addition of cryoprotectants) were transferred to a −80° C. freezer to freeze overnight. Until lyophilization, the samples were tilted and placed in the beaker, attached to a pre-set lyophilizer (Labconco FreeZone Freeze Dry System, Kansas City, MO). The lyophilizing process was set to maintain the environment at −50° C. and 0.070 mBar. Sample vials were measured for their weights after lyophilizing for at least two days. Once the weights were stable, indicating no more water was removed, the lyophilized powder was taken out of the vials and ground with a mortar and pestle. The lyophilized powder would be packed in a tube at 4° C. (unless other conditions were indicated) until further characterizations.
Q-GRFT Content Determination by High-Performance Liquid Chromatography (HPLC): The HPLC method for measuring the Q-GRFT content was developed in-house and reported previously. The samples were diluted 2 times with Milli-Q water. The Q-GRFT content was detected by an HPLC system (Waters Corporation, Milford, MA) equipped with an auto-injector (model 717), a quaternary pump (model 600), and a photodiode array detector (model 2996)) with a C5 column (Jupiter 5 μm 300 Å, 250×4.6 mm) and a C5 pre-column (Security Guard Standard Widepore).

[5] = pH measurement of enema formulations / reconstituted solutions (pH meter); assay type: physicochemical; conditions: stock solution in 1× PBS
Description: To investigate if the vehicle strength impacts the pH and osmolality of formulations, PBS-base was used directly (1× PBS) or diluted (50% PBS) with or without the addition of TFV and Q-GRFT. To study if the vehicle composition impacts the pH and osmolality of formulations, PBS-base and saline-base were used directly (1× PBS; 1× saline) with the addition of TFV and Q-GRFT. Three formulations (50% PBS, 1× PBS, 1× saline; all with the addition of TFV and Q-GRFT) were chosen to further evaluate the effects of pH adjusting agents on osmolality. For the final screening, both vehicles (PBS-base and saline-base) were diluted into three strengths, 30%, 35%, and 40% with the addition of TFV and Q-GRFT. pH and osmolality were measured as in-line checkpoints for screening and quality assurance.
Manufacturing Procedure: Stock buffer (10× PBS or Saline) was diluted with Milli-Q water to a solution with lower osmolality than desired (˜40 mOsm/kg lower). […] Finally, Q-GRFT stock solution (in 1× PBS) was measured and added to the solution to make the final product. […]
pH: The pH was determined using a pH meter (XL150 pH Benchtop Meters, Fisher Scientific). […]
pH: The pH was determined by a pH meter (XL150 pH Benchtop Meters, Thermo Fisher Scientific; Waltham, MA). […] The pH was recorded only after the value stayed stable.

HIV-1 gp120CM = experiment: gp120 binding bioactivity by ELISA
Experimental: Bioactivity Determination using Enzyme-linked Immunosorbent Assay (ELISA): An ELISA was applied to evaluate the gp120 binding activity of select Q-GRFT samples. Nunc MaxiSorp 96-well plates were used for this experiment. The MaxiSorp surface is a hydrophilic/hydrophobic mix that binds to a wide range of biomolecules. In short, gp120 was bound to the wells of a 96-well plate overnight at 4° C. The HIV-1 gp120CM was purchased from Kentucky Bioprocessing (KBP; Part #C-1312). After overnight incubation, the solution of gp120 was removed, and a blocking solution (1× PBS-T [PBS with 0.05% Tween 20]) was applied for two hours at room temperature. After that, the wells were washed and incubated with various dilutions of Q-GRFT samples for one hour. Gp120 binding was detected by applying goat anti-Q-GRFT primary antibody (one-hour incubation) and HRP-labeled rabbit anti-goat secondary antibody (one-hour incubation), sequentially. […] Gp120 binding was measured at 450 nm.
Bioactivity Determination by Enzyme-linked Immunosorbent Assay (ELISA): An ELISA was adapted and applied to evaluate the gp120 binding activity of the Q-GRFT samples. […] Gp120 binding was detected by applying goat anti-Q-GRFT primary antibody (one-hour incubation) and HRP-labeled rabbit anti-goat secondary antibody (one-hour incubation), sequentially. […] Gp120 binding was measured at 450 nm with a plate reader.

human colon tissue = experiment: Ex vivo human colon tissue permeability of Q-GRFT in Ussing chamber; conditions: all time points, LLOQ of the HPLC method
Experimental: Permeability and Toxicity Assessment with the Ex Vivo Human Colon Tissue: Tissue specimens were collected from patients 18-75 years old. A section of each tissue was retained for histological evaluation with hematoxylin and eosin (H&E) staining assay. After removal of the excess stromal tissue, the epithelial tissue was placed between the donor and receptor compartments of the Ussing chamber apparatus with the epithelial side toward the donor compartment. This set-up was maintained at 37° C. throughout the experiment. Both donor and receptor compartments were filled with KRBG during system calibration. Then the KRBG buffer from the donor sides was replaced with sample solutions. 50 μL was removed from the donor compartment at the beginning and the end of the experiments. At predetermined time points (Time 0, 15, 30, 45, 60, 75, 90, 120 minutes), 200 μL was removed from the receptor chamber and the same volume of fresh KRBG was added for replacement. These samples were held at 4° C. until analyzed by UPLC (for TFV) or HPLC (for Q-GRFT). The Papp values were calculated using Equation 1 as described above. All tissues, including pre-treatment and post-treatment tissues from all groups, were processed for paraffin sectioning. The tissue sections were embedded into paraffin blocks using the Leica EG 1160 embedding station. […]

## CCCCCCCCCCCCOS(=O)(=O)[O-].[Na+] [20% SDS (positive control)]
[1]; Caco-2
  Paracellular marker [^14C]-Mannitol: Papp: 30 ± 1 ×10⁻⁶ cm/s

## OCC(O)C(O)C(O)C(O)[14CH2]O (stereo not drawn) [[^14C]-Mannitol]
[1]; tested using this Caco-2 monolayer cell model
  Papp of [^14C]-Mannitol (model validation): 0.33 ×10⁻⁶ cm/s
[2]
  Papp of [^14C]-Mannitol, reported value: 0.12 ×10⁻⁶ cm/s

## C=O [formaldehyde]
[3]
  TEER value after treatment: < 165 Ω*cm^2

## OC[C@@H](O)[C@@H](O[C@@H]1O[C@H](CO)[C@H](O)[C@H](O)[C@H]1O)[C@H](O)[C@@H](O)CO [lactitol]
[4]
  Cryoprotecting effect on Q-GRFT content of lyophilized powder: no protection

## OC[C@@H](O)[C@@H](O[C@H]1O[C@H](CO)[C@@H](O)[C@H](O)[C@H]1O)[C@H](O)[C@@H](O)CO [maltitol]
[4]
  Cryoprotecting effect on Q-GRFT content of lyophilized powder: concentration-dependent protection

## OC[C@H]1O[C@@](CO)(O[C@H]2O[C@H](CO)[C@@H](O)[C@H](O)[C@H]2O)[C@@H](O)[C@@H]1O [sucrose]
[4]
  Cryoprotecting effect on Q-GRFT content of lyophilized powder: concentration-dependent protection

## OC[C@H]1O[C@H](O[C@H]2O[C@H](CO)[C@@H](O)[C@H](O)[C@H]2O)[C@H](O)[C@@H](O)[C@@H]1O [trehalose]
[4]
  Cryoprotecting effect on Q-GRFT content of lyophilized powder: concentration-independent protection

## Q-GRFT: engineered form of griffithsin with increased stability against oxidation; stock solution in 1× PBS
[5]
  pH of Q-GRFT stock solution: around 7.39
HIV-1 gp120CM; after lyophilization and reconstitution, Example 2 (FIG. 18)
  EC50 gp120 binding (ELISA): 7.02 ng/mL
HIV-1 gp120CM; reference solution, Example 1 (FIG. 11)
  EC50 gp120 binding (ELISA): 11.70 ng/mL
Human colon tissue
  Q-GRFT content from the receptor sides: < 1 µg/mL
